Results from patent US20240327372A1, “PREPARATION OF PHENE[…] […] STEREOISOMERS THEREOF AND PRECURSORS THEREOF” (priority 2022, published 2024).
Counter-ions that a name gives are not always drawn.

What was measured:
[1] = Dynamic vapor sorption (DVS); assay type: physicochemical
Procedure: (§1) Two lots of methylone HCl samples were submitted to evaluate the stability of the solid forms under various humidity conditions. Dynamic vapor sorption (DVS) analysis was performed to evaluate the kinetic hygroscopicity and assess if variable humidity XRPD would be necessary, as well as to determine the appropriate humidity condition(s) for such XRPD analysis. Both pre- and post-DVS samples were analyzed by conventional XRPD for solid form confirmation or any potential form changes.
DVS analyses were carried out using a TA Instruments Q5000 Dynamic Vapor Sorption analyzer. The instrument was calibrated with standard weights and a sodium bromide standard for humidity. Approximately 12-13 mg of each powder sample was loaded into a metal-coated quartz pan for analysis. The samples were analyzed from 5 to 95% RH (adsorption cycle) and from 95 to 5% RH (desorption cycle) in 10% RH steps. The movement from one step to the next occurred either after satisfying the equilibrium criterion of 0.01% weight change in 5 minutes or, if the equilibrium criterion was not met, after 90 minutes. The percent weight change values were calculated using Microsoft EXCEL® 2016.

[2] = XRPD of pre- and post-DVS samples (form stability); assay type: physicochemical; settings: pre- versus post-DVS
Procedure: as §1
The XRPD patterns between the pre- and post-DVS samples were compared for lots 213220 and KRR-R&D-2022-II-58, respectively.
Each sample was prepared in a silicon low background holder using light manual pressure to keep the sample surface flat and level with the reference surface of the sample holder. The single crystal Si low background holder has a circular recess (10 mm diameter and about 0.2 mm depth) that holds the sample. The Rigaku Smart-Lab diffraction system used was configured for Bragg-Brentano reflection geometry using a line source X-ray beam. The Bragg-Brentano geometry was controlled by passive divergence and receiving slits with the sample itself acting as the focusing component for the optics.

[3] = target: hKir2.1 (Homo sapiens (Human), UniProt P63252); assay type: cell-based
Procedure: (§2) Electrophysiological assays were conducted to profile three compounds ((R)-methylone, (S)-methylone, or racemic methylone) for activities on the ion channel targets specified below using the Qube electrophysiological platform. Where presented, IC50 values were determined by a non-linear, least squares regression analysis. Reference standards were run as an integral part of each assay to ensure the validity of the results obtained.
(§3) Ion Channels tested were Eurofins Panel Part Number: CPROFullQB2DR Voltage-Gated Sodium: HEK-Nav1.5 (Peak), HEK-Nav1.5 (Late, Antagonist) Voltage-Gated Potassium: HEK-Kv4.3/KChIP2, CHO-hERG, CHO-KCNQ1/minK Voltage-Gated Calcium: HEK-Cav1.2 Inward-Rectifying Voltage-Gated Potassium: HEK-Kir2.1.
hKir2.1 Potassium Channel Assay—Qube APC After whole cell configuration is achieved, the cells are held at −30 mV. Kir2.1 currents are evoked by a single 500 ms pulse to −120 mV before returning to the holding potential of −30 mV. This paradigm is delivered once every 20 s to monitor the current amplitude.

[4] = target: hNav1.5 (Homo sapiens (Human), UniProt Q14524); test: hNav1.5 Sodium Channel Assay (peak), Qube APC; assay type: cell-based; settings: Nav1.5, Antagonist mode, test compound
Procedure: (§4) Where presented, IC50 values were determined by a non-linear, least squares regression analysis.
(§5) Recombinant HEK-293 cells stably transfected with human Nav1.5 cDNA, recombinant HEK293 cell line expressing the human Cav1.2 (L-type voltage gated calcium channel, hCav1.2 α1C/β2a/α2δ1, and recombinant CHO-K1 cells stably transfected with human hERG cDNA were used separately in each of these assays.
hNav1.5 Sodium Channel Assay—Qube APC Onset and steady state block of peak Nav1.5 current is measured using a pulse pattern, repeated every 5 sec, consisting of a hyperpolarizing pulse to −120 mV for a 200 ms duration, depolarization to −15 mV amplitude for a 40 ms duration, followed by step to 40 mV for 200 ms and finally a 100 ms ramp (1.2 V/s) to a holding potential of −80 mV. Peak current is measured during the step to −15 mV.

[5] = target: hKCNQ1/hminK (Homo sapiens (Human), UniProt P51787); test: hKCNQ1/hminK Potassium Channel Assay, Qube APC; assay type: cell-based; settings: KCNQ1/mink
Procedure: as §2, §3
hKCNQ1/hminK Potassium Channel Assay—Qube APC After whole cell configuration is achieved, the cells are held at −80 mV. KCNQ1/minK currents are evoked by a 1000 ms pulse from −80 mV to 60 mV followed by a ramp from 60 mV to −80 mV over 115 ms with the outward peak currents measured upon depolarization of the cell membrane. This paradigm is delivered once every 15 s to monitor the current amplitude.

[6] = target: hNav1.5 Late Current (Homo sapiens (Human), UniProt Q14524); test: hNav1.5 Late Current Sodium Channel Assay, Qube APC; assay type: cell-based; settings: Nav1.5 Late Current, Antagonist mode, test compound
Procedure: as §2, §3
hNav1.5 Late Current Sodium Channel Assay—Qube APC Onset and steady state block of Late Nav1.5 current is measured using a pulse pattern, repeated every 5 sec, consisting of a hyperpolarizing pulse to −120 mV for a 200 ms duration, depolarization to −15 mV amplitude for a 40 ms duration, followed by step to 40 mV for 200 ms and finally a 100 ms ramp (1.2 V/s) to a holding potential of −80 mV. Late current is measured as charge current elicited during the ramp with 50 nM ATXII.

[7] = target: hCav1.2 (Homo sapiens (Human), UniProt Q13936); test: hCav1.2 (L-type) Calcium Channel Assay, Qube APC; assay type: cell-based; settings: Cav1.2, Antagonist mode, test compound
Procedure: as §4, §5
hCav1.2 (L-type) Calcium Channel Assay—Qube APC After whole cell configuration is achieved, the cells are held at −90 mV. Cav1.2 currents are evoked by a 50 ms pulse to −100 mV followed by a 200 ms pulse to +20 mV before returning to the holding potential of −90 mV. This paradigm is delivered three times every 60 s to monitor the current amplitude.

[8] = target: hKv4.3/hKChIP2 (Homo sapiens (Human), UniProt Q9UK17); test: hKv4.3/hKChIP2 Potassium Channel Assay, Qube APC; assay type: cell-based
Procedure: as §2, §3
hKv4.3/hKChIP2 Potassium Channel Assay—Qube APC After whole cell configuration is achieved, the cells are held at −80 mV. Onset and steady state block of hKv4.3 current is measured using a pulse pattern from −80 mV to 40 mV amplitude for a 110 ms duration, and finally a 100 ms ramp (1.2 V/s) to −80 mV. This paradigm is delivered once every 5 s to monitor the current amplitude.

Sequence of hKv4.3/hKChIP2 (Q9UK17 whole entry, looked up): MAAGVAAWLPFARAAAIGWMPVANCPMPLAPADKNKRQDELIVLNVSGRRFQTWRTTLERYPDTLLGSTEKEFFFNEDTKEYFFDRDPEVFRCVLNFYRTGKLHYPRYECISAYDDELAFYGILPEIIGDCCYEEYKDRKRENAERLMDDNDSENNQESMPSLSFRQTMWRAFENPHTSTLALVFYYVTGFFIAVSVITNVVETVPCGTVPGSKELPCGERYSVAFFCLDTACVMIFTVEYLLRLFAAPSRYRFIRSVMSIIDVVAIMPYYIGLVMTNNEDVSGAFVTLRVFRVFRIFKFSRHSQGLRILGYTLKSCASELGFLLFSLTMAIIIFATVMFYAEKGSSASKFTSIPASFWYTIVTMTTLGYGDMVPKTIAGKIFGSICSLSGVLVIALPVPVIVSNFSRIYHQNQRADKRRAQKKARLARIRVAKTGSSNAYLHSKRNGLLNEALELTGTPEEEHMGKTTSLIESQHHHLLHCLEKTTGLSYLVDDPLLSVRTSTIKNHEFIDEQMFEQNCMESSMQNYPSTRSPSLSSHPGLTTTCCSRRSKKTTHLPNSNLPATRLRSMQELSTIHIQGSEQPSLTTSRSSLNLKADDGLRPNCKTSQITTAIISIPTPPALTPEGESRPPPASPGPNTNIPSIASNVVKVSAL
Sequence of hKv4.3/hKChIP2 (Q9NS61 whole entry partner, looked up): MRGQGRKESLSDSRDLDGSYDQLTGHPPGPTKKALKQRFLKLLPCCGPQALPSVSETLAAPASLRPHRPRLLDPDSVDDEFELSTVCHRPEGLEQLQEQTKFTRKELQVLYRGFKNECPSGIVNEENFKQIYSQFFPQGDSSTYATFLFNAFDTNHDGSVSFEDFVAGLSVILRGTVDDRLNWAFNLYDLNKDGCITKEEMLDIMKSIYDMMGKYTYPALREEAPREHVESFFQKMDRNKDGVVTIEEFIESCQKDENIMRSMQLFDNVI
Sequence of hKir2.1 (P63252 whole entry): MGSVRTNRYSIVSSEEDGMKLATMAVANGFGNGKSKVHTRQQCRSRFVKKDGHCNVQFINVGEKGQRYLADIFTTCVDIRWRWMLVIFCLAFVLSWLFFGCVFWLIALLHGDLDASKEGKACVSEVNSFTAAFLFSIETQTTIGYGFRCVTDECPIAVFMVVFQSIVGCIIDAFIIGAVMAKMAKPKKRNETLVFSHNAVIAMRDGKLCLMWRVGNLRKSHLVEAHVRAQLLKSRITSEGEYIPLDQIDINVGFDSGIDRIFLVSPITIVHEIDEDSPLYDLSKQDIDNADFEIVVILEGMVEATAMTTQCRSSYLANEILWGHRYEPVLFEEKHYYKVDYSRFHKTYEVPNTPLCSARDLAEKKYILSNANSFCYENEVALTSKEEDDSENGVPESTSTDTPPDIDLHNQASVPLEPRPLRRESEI

For `CNC(C)C(=O)c1ccc2c(c1)OCO2` (centres unmarked) [Lot 213220, methylone HCl], the Hysteresis upon desorption [1] was “little to no hysteresis” and the “Form changes of post-DVS samples (XRPD)” value [2] was “No form changes”.
Work on `[Ba+2].[Cl-].[Cl-]` [Barium Chloride] yielded an IC50 ([3]; Kir2.1, reference compound, read-out: Estimated IC50) of 14.4 µM.
For `CNC(C)C(=O)c1ccc2c(c1)OCO2` (centres unmarked) [Methylone HCl, methylone HCl], the “Estimated IC50” value [4] was “N/C (N/C indicates observed mean inhibition was <25%)”, the “Estimated IC50” value ([5]; Antagonist mode, test compound) was “N/C (N/C indicates observed mean inhibition was <25%)” and the “Estimated IC50” value ([3]; Kir2.1, Antagonist mode, test compound) was “N/C (N/C indicates observed mean inhibition was <25%)”. The “Estimated IC50” value [6] was “N/C (N/C indicates observed mean inhibition was <25%)”, the “Estimated IC50” value [7] was “N/C (N/C indicates observed mean inhibition was <25%)” and the “Estimated IC50” value ([8]; Kc4.3/ChIP2, Antagonist mode, test compound) was “N/C (N/C indicates observed mean inhibition was <25%)”.
In the case of `O=C(NCC1CCCCN1)c1cc(OCC(F)(F)F)ccc1OCC(F)(F)F` (centres unmarked) [Flecainide], the IC50 ([8]; Kc4.3/ChIP2, reference compound, read-out: Estimated IC50) is reported as 19.5 µM.
In the case of `CNC(C)C(=O)c1ccc2c(c1)OCO2.Cl` [lot KRR-R&D-2022-II-58, methylone HCl], the “Adsorbed water retained upon desorption” value [1] is reported as “approximately 0.06%”, the Hysteresis upon desorption [1] is reported as “slight hysteresis” and the “Form changes of post-DVS samples (XRPD)” value [2] is reported as “No form changes”.
`CCS(=O)(=O)N(C)[C@H]1c2cc(C#N)ccc2OC(C)(C)[C@@H]1O` (racemic) [Chromanol 293B] gave an IC50 ([5]; reference compound, read-out: Estimated IC50) of 45.3 µM.
